Measurements reported in ChEMBL document CHEMBL5108019, “Discovery of a novel Pleuromutilin derivative as anti-IPF lead compound via high-throughput assay” (Eur J Med Chem, 2022).
Active and inactive are the calls of the source. The calls are words filed in the database; no cut-off is given here.

Legend:
[1] = target: Transforming growth factor beta-1 proprotein/Mothers against decapentaplegic homolog 3 (Mus musculus) (UniProt P04202+Q8BUN5); test: Inhibition of TGF-beta1/Smad3 signalling in TGF-beta1 treated mouse NIH3T3 cells transfected with (CAGA)12-Lux reporter gene assessed as suppressive ratio at 10 uM incubated for 18 hrs by luciferase based analysis relative to control; assay type: cell-based; parameters: scale not given: the % may be the effect or the level left
Staphylococcus aureus = test: Antibacterial activity against Staphylococcus aureus assessed as bacterial growth inhibition incubated for 24 hrs; assay type: functional
Escherichia coli = test: Antibacterial activity against Escherichia coli assessed as bacterial growth inhibition incubated for 24 hrs; assay type: functional
Bacillus subtilis = test: Antibacterial activity against Bacillus subtilis assessed as bacterial growth inhibition incubated for 24 hrs; assay type: functional
[2] = Inhibition of TGF-beta1 induced cell proliferation in mouse MLg cells measured after 24 hrs by MTT assay; assay type: functional, cell-based
[3] = target: Transforming growth factor beta-1 proprotein/Mothers against decapentaplegic homolog 3 (Mus musculus, UniProt P04202+Q8BUN5); test: Inhibition of TGF-beta1/Smad3 signalling in TGF-beta1 treated mouse NIH3T3 cells transfected with (CAGA)12-Lux reporter gene incubated for 18 hrs by luciferase based analysis; assay type: cell-based
[4] = Cmax in Sprague-Dawley rat at 10 mg/kg, iv measured for 12 hrs by LC-MS/MS analysis; assay type: ADME, organism-based; parameters: dose 10 mg/kg, time 12 hrs, route iv; conditions: in vivo
[5] = AUC (0 to t) in Sprague-Dawley rat at 10 mg/kg, iv measured for 12 hrs by LC-MS/MS analysis; assay type: ADME, organism-based; parameters: dose 10 mg/kg, time 12 hrs, route iv; conditions: in vivo
[6] = Tmax in Sprague-Dawley rat at 10 mg/kg, iv measured for 12 hrs by LC-MS/MS analysis; assay type: ADME, organism-based; conditions: in vivo
[7] = Half life in Sprague-Dawley rat at 10 mg/kg, iv measured for 12 hrs by LC-MS/MS analysis; assay type: ADME, organism-based; conditions: in vivo
[8] = Clearance in Sprague-Dawley rat at 10 mg/kg, iv measured for 12 hrs by LC-MS/MS analysis; assay type: ADME, organism-based; conditions: in vivo
[9] = Cmax in Sprague-Dawley rat at 100 mg/kg, po measured for 18 hrs by LC-MS/MS analysis; assay type: ADME, organism-based; parameters: dose 100 mg/kg, time 18 hrs, route po; conditions: in vivo
[10] = AUC (0 to t) in Sprague-Dawley rat at 100 mg/kg, po measured for 18 hrs by LC-MS/MS analysis; assay type: ADME, organism-based; parameters: dose 100 mg/kg, time 18 hrs, route po; conditions: in vivo
[11] = Tmax in Sprague-Dawley rat at 100 mg/kg, po measured for 18 hrs by LC-MS/MS analysis; assay type: ADME, organism-based; conditions: in vivo
[12] = Half life in Sprague-Dawley rat at 100 mg/kg, po measured for 18 hrs by LC-MS/MS analysis; assay type: ADME, organism-based; conditions: in vivo
[13] = Clearance in Sprague-Dawley rat at 100 mg/kg, po measured for 18 hrs by LC-MS/MS analysis; assay type: ADME, organism-based; conditions: in vivo
[14] = Oral bioavailability in Sprague-Dawley rat at 100 mg/kg measured for 18 hrs by LC-MS/MS analysis; assay type: ADME, organism-based; conditions: in vivo
[15] = Toxicity in C57BL/6 mouse assessed as animal survival at 1000 mg/kg, IG administered as single dose; assay type: organism-based; conditions: in vivo, po
[16] = Toxicity in C57BL/6 mouse assessed as animal survival at 500 mg/kg, IG administered once every day for 7 days; assay type: organism-based; conditions: in vivo, po, 168 h, time 7 day
[17] = Toxicity in C57BL/6 mouse assessed as animal survival at 500 mg/kg, po administered once every day for 30 days; assay type: organism-based; conditions: in vivo, 720 h, time 30 day
[18] = Toxicity in C57BL/6 mouse assessed as toxic symptoms at 500 mg/kg, po administered once every day for 30 days; assay type: organism-based; conditions: in vivo, 720 h, time 30 day
Mus musculus [19] = test: Antifibrotic activity against BLM-induced pulmonary fibrosis in C57BL/6 mouse model assessed as improvement in pulmonary alveolar structure damage at 100 to 200 mg/kg, po administered once daily starting from day 7 post BLM treatment and measured on day 14 by H and E staining based analysis; assay type: functional, organism-based; conditions: dose 100-200 mg/kg, time 14.0 day
Mus musculus [20] = test: Antifibrotic activity against BLM-induced pulmonary fibrosis in C57BL/6 mouse model assessed as improvement in forced vital capacity at 200 mg/kg, po administered once daily starting from day 7 post BLM treatment and measured on day 14 by plethysmography chamber based pulmonary function analysis; assay type: functional; conditions: time 14 day
Mus musculus [21] = test: Antifibrotic activity against BLM-induced pulmonary fibrosis in C57BL/6 mouse model assessed as improvement in dynamic compliance at 200 mg/kg, po administered once daily starting from day 7 post BLM treatment and measured on day 14 by plethysmography chamber based pulmonary function analysis; assay type: functional; conditions: time 14 day
Mus musculus [22] = test: Antifibrotic activity against BLM-induced pulmonary fibrosis in C57BL/6 mouse model assessed as improvement in inspiratory resistance at 200 mg/kg, po administered once daily starting from day 7 post BLM treatment and measured on day 14 by plethysmography chamber based pulmonary function analysis; assay type: functional; conditions: time 14 day
Mus musculus [23] = test: Antifibrotic activity against BLM-induced pulmonary fibrosis in C57BL/6 mouse model assessed as improvement in expiratory resistance at 200 mg/kg, po administered once daily starting from day 7 post BLM treatment and measured on day 14 by plethysmography chamber based pulmonary function analysis; assay type: functional, organism-based; conditions: time 14.0 day
Mus musculus [24] = test: (§1) Antifibrotic activity against BLM-induced pulmonary fibrosis in C57BL/6 mouse model assessed as reduction in fibrosis region at 200 mg/kg, po administered once daily starting from day 7 post BLM treatment and measured on day 14 by hematoxylin-eosin and Masson trichrome staining based analysis relative to control; assay type: functional, organism-based; conditions: time 14.0 day
Mus musculus [25] = test: as §1, with “100” for “200”; assay type: functional, organism-based; conditions: time 14.0 day
Mus musculus [26] = test: Antifibrotic activity against BLM-induced pulmonary fibrosis in C57BL/6 mouse model assessed as reduction in collagen content in lungs at 100 to 200 mg/kg, po administered once daily starting from day 7 post BLM treatment and measured on day 14 by hydroxyproline method; assay type: functional, organism-based; conditions: dose 100-200 mg/kg, time 14.0 day
Mus musculus [27] = test: Antifibrotic activity against BLM-induced pulmonary fibrosis in C57BL/6 mouse model assessed as reduction in extracellular matrix generation at 200 mg/kg, po administered once daily starting from day 7 post BLM treatment and measured on day 14 by hydroxyproline method; assay type: functional, organism-based; conditions: time 14.0 day
Pulmonary fibroblast [28] = test: Inhibition of TGF-beta1 induced cell stimulation in mouse pulmonary fibroblast cells assessed as reduction in alpha-SMA protein expression at 10 to 40 uM incubated for 24 hrs by Western blot analysis; assay type: functional, cell-based; conditions: dose 10-40 µM
Pulmonary fibroblast [29] = test: Inhibition of TGF-beta1 induced extracellular matrix development in mouse pulmonary fibroblast cells assessed as reduction in alpha-SMA mRNA expression at 10 to 40 uM incubated for 24 hrs by RT-PCR analysis; assay type: functional, cell-based; conditions: dose 10-40 µM
[30] = target: Mothers against decapentaplegic homolog 3 (Mus musculus) (UniProt Q8BUN5); test: Inhibition of TGF-beta1 induced Smad3 phosphorylation in mouse pulmonary fibroblast cells at 10 to 40 uM incubated for 0.5 hrs by Western blot analysis; assay type: cell-based; conditions: dose 10-40 µM
Chain of Mothers against decapentaplegic homolog 3 (Mus musculus) (Q8BUN5 whole entry, looked up): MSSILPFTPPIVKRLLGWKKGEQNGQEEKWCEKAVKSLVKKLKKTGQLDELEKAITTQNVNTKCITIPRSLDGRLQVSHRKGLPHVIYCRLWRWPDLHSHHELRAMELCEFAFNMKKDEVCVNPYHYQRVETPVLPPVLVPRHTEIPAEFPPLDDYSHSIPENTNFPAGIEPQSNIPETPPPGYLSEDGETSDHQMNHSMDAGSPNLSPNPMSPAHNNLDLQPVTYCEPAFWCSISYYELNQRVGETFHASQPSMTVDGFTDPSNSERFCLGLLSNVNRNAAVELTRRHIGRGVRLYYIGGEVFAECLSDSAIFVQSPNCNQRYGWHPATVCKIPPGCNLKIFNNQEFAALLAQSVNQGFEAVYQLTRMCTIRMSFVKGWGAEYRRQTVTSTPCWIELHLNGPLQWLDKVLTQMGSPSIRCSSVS

Chain of Transforming growth factor beta-1 proprotein/Mothers against decapentaplegic homolog 3 (P04202 279-390 limits assumed): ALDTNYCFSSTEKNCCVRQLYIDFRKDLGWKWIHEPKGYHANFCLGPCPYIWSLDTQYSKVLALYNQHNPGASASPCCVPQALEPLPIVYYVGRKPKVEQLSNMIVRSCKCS
Chain of Transforming growth factor beta-1 proprotein/Mothers against decapentaplegic homolog 3 (Q8BUN5 2-425 limits assumed): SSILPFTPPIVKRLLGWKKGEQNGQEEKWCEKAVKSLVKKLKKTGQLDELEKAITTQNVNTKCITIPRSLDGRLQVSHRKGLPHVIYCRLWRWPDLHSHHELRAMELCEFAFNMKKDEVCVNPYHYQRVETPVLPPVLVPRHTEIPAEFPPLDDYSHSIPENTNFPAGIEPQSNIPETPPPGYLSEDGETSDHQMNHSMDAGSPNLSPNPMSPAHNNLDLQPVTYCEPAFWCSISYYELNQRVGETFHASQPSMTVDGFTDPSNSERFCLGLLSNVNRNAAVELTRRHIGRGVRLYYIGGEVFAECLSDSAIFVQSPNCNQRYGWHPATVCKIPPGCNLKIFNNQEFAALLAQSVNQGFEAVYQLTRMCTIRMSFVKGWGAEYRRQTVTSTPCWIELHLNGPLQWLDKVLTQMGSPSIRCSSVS
Chain of Transforming growth factor beta-1 proprotein/Mothers against decapentaplegic homolog 3 (Mus musculus) (P04202 279-390 limits assumed): as the sequence (P04202 279-390 limits assumed) above
Chain of Transforming growth factor beta-1 proprotein/Mothers against decapentaplegic homolog 3 (Mus musculus) (Q8BUN5 2-425 partner limits assumed): as the sequence (Q8BUN5 2-425 limits assumed) above

**Q.** Which results are given for C=C[C@]1(C)C[C@@H](O)[C@]2(C)[C@H](C)CC[C@]3(C/C(=C\c4ccc(C(=O)NC5CCCCC5)cc4)C(=O)[C@H]32)[C@@H](C)[C@@H]1O?
**A.** Activity [1]: 58.4%; MIC (Staphylococcus aureus): > 1000 µg/mL; MIC (Escherichia coli): > 1000 µg/mL; MIC (Bacillus subtilis): > 1000 µg/mL; IC50 [2]: 160 µM; IC50 [3]: 60.3 µM; Cmax [4]: 2270 ng/mL; AUC(0-t) at 12 h [5]: 2900 ng·h/mL; Tmax [6]: 39.6 s; half-life [7]: 29.3 min; clearance [8]: 27.1 mL/min; Cmax [9]: 2160 ng/mL; AUC(0-t) at 18 h [10]: 17800 ng·h/mL; Tmax [11]: 3.33 h; half-life [12]: 552 min; CL/F [13]: 7.62 mL/min; bioavailability [14]: 61.2%; Activity [15]: Non-Toxic; Activity [16]: Non-Toxic; Activity [17]: Non-Toxic; Activity [18]: Non-Toxic; Activity (Mus musculus [19]): Active; Activity (Mus musculus [20]): 76.47%; Activity (Mus musculus [21]): 38.85%; Activity (Mus musculus [22]): 51.03%; Activity (Mus musculus [23]): Active; Activity (Mus musculus [24]): Active; Activity (Mus musculus [25]): Active; Activity (Mus musculus [26]): Active; Activity (Mus musculus [27]): Active; inhibition (Pulmonary fibroblast [28]): Active; inhibition (Pulmonary fibroblast [29]): Active; inhibition [30]: Active
